{"source": "patent US8293802B2", "about": "“Gentle-acting skin-disinfectants and hydroalcoholic gel formulations” (The Trustees of Columbia University, priority 2001, dated 2012)", "key": {"[1]": {"system": "S. aureus", "test": "Rapid antimicrobial activity: test gel/base mixed with culture and bovine adult serum, 15 seconds, colony count", "assay_type": "cell-based, Staphylococcus aureus", "settings": "for S. aureus (cfu/tube) / Growth (CFU/ml): control 1 × 10^8; for antimicrobial activity against S. aureus (in words): Tables 1 and 2; for Growth (cfu/tube): Table 7, control (without gel base) 2.5-4.2 × 10^8"}, "[2]": {"settings": "at 22° C.; cited from earlier work"}, "[3]": {"settings": "Table 2, alcohol gel base, 15 seconds"}, "[4]": {"settings": "Table 5, alcohol gel base, 15 seconds"}, "[5]": {"settings": "Table 1, alcohol gel base of Example 1, 15 seconds, bovine adult serum"}, "[6]": {"settings": "Table 1, alcohol gel base, 15 seconds"}, "[7]": {"settings": "Table 10, aqueous base of Example 8, 15 seconds, aqueous base control 5.0 × 10^8"}, "[8]": {"settings": "Table 3, alcohol gel base, 15 seconds"}}, "note": "Where two headings read alike, the source gives them in different places."}
{"molecule": "benzalkonium chloride [0.5% BZK]", "values": [{"measurement": "Log 10 cfu reduction relative to control", "setting": "[1]; [3]", "result": 1.4, "unit": "log 10"}, {"measurement": "fold reduction relative to control", "setting": "[1]; [3]", "result": 27, "unit": "fold"}, {"measurement": "S. aureus (cfu/tube)", "setting": "[1]; [3]", "result": "3.7 × 10^6 cfu/tube"}]}
{"molecule": "benzalkonium chloride [0.19% BZK]", "values": [{"measurement": "Log 10 cfu reduction relative to control", "setting": "[1]; [3]", "result": 0.7, "unit": "log 10"}, {"measurement": "fold reduction relative to control", "setting": "[1]; [3]", "result": 5, "unit": "fold"}, {"measurement": "S. aureus (cfu/tube)", "setting": "[1]; [3]", "result": "2 × 10^7 cfu/tube"}, {"measurement": "antimicrobial activity against S. aureus (in words)", "setting": "[1]; alcohol gel base", "result": "minimal or no antimicrobial activity"}]}
{"molecule": "Clc1ccc(COC(Cn2ccnc2)c2ccc(Cl)cc2Cl)c(Cl)c1", "note": "(stereo not drawn) [1.0% Miconazole, miconazole]", "values": [{"measurement": "fold reduction relative to control", "setting": "[1]; [4]", "result": 0, "unit": "fold"}, {"measurement": "Growth (CFU/ml)", "setting": "[1]; [4]", "result": "1.0 × 10^8 CFU/ml"}]}
{"molecule": "CCCCC(CC)COCC(O)CO", "note": "(stereo not drawn) [0.5% Sensiva, glycerol 1-(2-ethylhexyl)ether]", "values": [{"measurement": "S. aureus (cfu/tube)", "setting": "[1]; [5]", "result": "1 × 10^7 cfu/tube"}, {"measurement": "fold-reduction relative to control", "setting": "[1]; [6]", "result": 2.5, "unit": "fold"}, {"measurement": "Growth (cfu/tube)", "setting": "[1]; alcohol gel base, 15 seconds", "result": "4.0 × 10^7 cfu/tube"}]}
{"molecule": "CC(C)(C)CC(C)(C)c1ccc(OCCOCC[N+](C)(C)Cc2ccccc2)cc1", "note": "[0.12% BZT, benzethonium chloride]", "values": [{"measurement": "fold reduction relative to control", "setting": "[1]; [4]", "result": 10, "unit": "fold"}, {"measurement": "Growth (CFU/ml)", "setting": "[1]; [4]", "result": "1.0 × 10^7 CFU/ml"}]}
{"molecule": "CCCCC(CC)COCC(O)CO", "note": "(stereo not drawn) [1.0% Sensiva, glycerol 1-(2-ethylhexyl)ether]", "values": [{"measurement": "S. aureus (cfu/tube)", "setting": "[1]; [5]", "result": "4 × 10^7 cfu/tube"}, {"measurement": "fold-reduction relative to control", "setting": "[1]; [6]", "result": 9, "unit": "fold"}, {"measurement": "Log 10 cfu reduction relative to control", "setting": "[1]; [3]", "result": 1, "unit": "log 10"}, {"measurement": "fold reduction relative to control", "setting": "[1]; [3]", "result": 10, "unit": "fold"}, {"measurement": "S. aureus (cfu/tube)", "setting": "[1]; [3]", "result": "4 × 10^7 cfu/tube"}, {"measurement": "Growth (cfu/tube)", "setting": "[1]; alcohol gel base, 15 seconds", "result": "1.0 × 10^7 cfu/tube"}, {"measurement": "Staphylococcus aureus (CFU/tube)", "setting": "[1]; [7]", "result": "5.0 × 10^8 CFU/tube"}]}
{"molecule": "CCCCC(CC)COCC(O)CO", "note": "(stereo not drawn) [5.0% Sensiva, glycerol 1-(2-ethylhexyl)ether]", "values": [{"measurement": "S. aureus (cfu/tube)", "setting": "[1]; [5]", "result": "1 × 10^6 cfu/tube"}, {"measurement": "fold-reduction relative to control", "setting": "[1]; [6]", "result": 100, "unit": "fold"}]}
{"molecule": "CCCCC(CC)COCC(O)CO", "note": "(stereo not drawn) [3.0% Sensiva, glycerol 1-(2-ethylhexyl)ether]", "values": [{"measurement": "S. aureus (cfu/tube)", "setting": "[1]; [5]", "result": "1 × 10^6 cfu/tube"}, {"measurement": "fold-reduction relative to control", "setting": "[1]; [6]", "result": 100, "unit": "fold"}]}
{"molecule": "polyhexamethylene biguanide [0.3% PHMB]", "values": [{"measurement": "Staphylococcus aureus (CFU/tube)", "setting": "[1]", "result": "1.0 × 10^7 CFU/tube"}, {"measurement": "fold reduction relative to control", "setting": "[1]; [4]", "result": 33, "unit": "fold"}, {"measurement": "Growth (CFU/ml)", "setting": "[1]; [4]", "result": "3.0 × 10^6 CFU/ml"}]}
{"molecule": "benzalkonium chloride [0.019% BZK]", "values": [{"measurement": "Growth (cfu/tube)", "setting": "[1]; alcohol gel base, 15 seconds", "result": "8.0 × 10^7 cfu/tube"}]}
{"molecule": "povidone iodine [1.0% PVI]", "values": [{"measurement": "fold reduction relative to control", "setting": "[1]; [4]", "result": 5, "unit": "fold"}, {"measurement": "Growth (CFU/ml)", "setting": "[1]; [4]", "result": "2.0 × 10^7 CFU/ml"}]}
{"molecule": "benzalkonium chloride [0.12% BZK]", "values": [{"measurement": "Log 10 cfu reduction relative to control", "setting": "[1]; [3]", "result": 0.8, "unit": "log 10"}, {"measurement": "fold reduction relative to control", "setting": "[1]; [3]", "result": 6.25, "unit": "fold"}, {"measurement": "S. aureus (cfu/tube)", "setting": "[1]; [3]", "result": "1.6 × 10^7 cfu/tube"}, {"measurement": "fold reduction relative to control", "setting": "[1]; [4]", "result": 6.25, "unit": "fold"}, {"measurement": "Growth (CFU/ml)", "setting": "[1]; [4]", "result": "1.6 × 10^7 CFU/ml"}, {"measurement": "Growth (cfu/tube)", "setting": "[1]; alcohol gel base, 15 seconds", "result": "1.6 × 10^7 cfu/tube"}, {"measurement": "Staphylococcus aureus (CFU/tube)", "setting": "[1]; [7]", "result": "2.0 × 10^8 CFU/tube"}, {"measurement": "antimicrobial activity against S. aureus (in words)", "setting": "[1]; alcohol gel base", "result": "minimal or no antimicrobial activity"}]}
{"molecule": "N=C(NCCCCCCNC(=N)NC(=N)Nc1ccc(Cl)cc1)NC(=N)Nc1ccc(Cl)cc1.O=C(O)[C@H](O)[C@@H](O)[C@H](O)[C@H](O)CO.O=C(O)[C@H](O)[C@@H](O)[C@H](O)[C@H](O)CO", "note": "[0.5% CHG, chlorhexidine digluconate]", "values": [{"measurement": "Log 10 cfu reduction relative to control", "setting": "[1]; [8]", "result": 1.4, "unit": "log 10"}, {"measurement": "fold reduction relative to control", "setting": "[1]; [8]", "result": 23.8, "unit": "fold"}, {"measurement": "S. aureus (cfu/tube)", "setting": "[1]; [8]", "result": "4.2 × 10^6 cfu/tube"}]}
{"molecule": "CCCCC(CC)COCC(O)CO", "note": "(stereo not drawn) [2.0% Sensiva, glycerol 1-(2-ethylhexyl)ether]", "values": [{"measurement": "S. aureus (cfu/tube)", "setting": "[1]; [5]", "result": "3 × 10^6 cfu/tube"}, {"measurement": "fold-reduction relative to control", "setting": "[1]; [6]", "result": 33, "unit": "fold"}, {"measurement": "Log 10 cfu reduction relative to control", "setting": "[1]; [3]", "result": 1.5, "unit": "log 10"}, {"measurement": "fold reduction relative to control", "setting": "[1]; [3]", "result": 33, "unit": "fold"}, {"measurement": "S. aureus (cfu/tube)", "setting": "[1]; [3]", "result": "3 × 10^6 cfu/tube"}, {"measurement": "fold reduction relative to control", "setting": "[1]; [4]", "result": 33, "unit": "fold"}, {"measurement": "Growth (CFU/ml)", "setting": "[1]; [4]", "result": "3 × 10^6 CFU/ml"}, {"measurement": "Fold Reduction Compared to Control", "setting": "[1]; Table 6, alcohol gel base, 15 seconds", "result": 33, "unit": "fold"}, {"measurement": "Growth (CFU/ML)", "setting": "[1]; Table 6, alcohol gel base, 15 seconds, control 1.0 × 10^8", "result": "3.0 × 10^6 CFU/ML"}]}
{"molecule": "neomycin [0.3% Neomycin]", "values": [{"measurement": "fold reduction relative to control", "setting": "[1]; [4]", "result": 4.3, "unit": "fold"}, {"measurement": "Growth (CFU/ml)", "setting": "[1]; [4]", "result": "2.3 × 10^7 CFU/ml"}]}
{"molecule": "N=C(NCCCCCCNC(=N)NC(=N)Nc1ccc(Cl)cc1)NC(=N)Nc1ccc(Cl)cc1.O=C(O)[C@H](O)[C@@H](O)[C@H](O)[C@H](O)CO.O=C(O)[C@H](O)[C@@H](O)[C@H](O)[C@H](O)CO", "note": "[0.25% CHG, chlorhexidine digluconate]", "values": [{"measurement": "Log 10 cfu reduction relative to control", "setting": "[1]; [8]", "result": 1.1, "unit": "log 10"}, {"measurement": "fold reduction relative to control", "setting": "[1]; [8]", "result": 12.5, "unit": "fold"}, {"measurement": "S. aureus (cfu/tube)", "setting": "[1]; [8]", "result": "8 × 10^6 cfu/tube"}]}
{"molecule": "N=C(NCCCCCCNC(=N)NC(=N)Nc1ccc(Cl)cc1)NC(=N)Nc1ccc(Cl)cc1.O=C(O)[C@H](O)[C@@H](O)[C@H](O)[C@H](O)CO.O=C(O)[C@H](O)[C@@H](O)[C@H](O)[C@H](O)CO", "note": "[0.05% CHG, chlorhexidine digluconate]", "values": [{"measurement": "Log 10 cfu reduction relative to control", "setting": "[1]; [8]", "result": 1.0, "unit": "log 10"}, {"measurement": "fold reduction relative to control", "setting": "[1]; [8]", "result": 9, "unit": "fold"}, {"measurement": "S. aureus (cfu/tube)", "setting": "[1]; [8]", "result": "1.1 × 10^7 cfu/tube"}, {"measurement": "fold reduction relative to control", "setting": "[1]; [4]", "result": 9, "unit": "fold"}, {"measurement": "Growth (CFU/ml)", "setting": "[1]; [4]", "result": "1.1 × 10^7 CFU/ml"}, {"measurement": "Growth (cfu/tube)", "setting": "[1]; alcohol gel base, 15 seconds", "result": "1.1 × 10^7 cfu/tube"}, {"measurement": "Staphylococcus aureus (CFU/tube)", "setting": "[1]; [7]", "result": "2.5 × 10^8 CFU/tube"}]}
{"molecule": "CCCCC(CC)COCC(O)CO", "note": "(stereo not drawn) [Sensiva SC 50, glycerol 1-(2-ethylhexyl)ether]", "values": [{"measurement": "water solubility", "setting": "[2]", "result": "approximately 1.8 g/l"}]}
{"molecule": "Oc1cc(Cl)ccc1Oc1ccc(Cl)cc1Cl", "note": "[0.3% TC, triclosan]", "values": [{"measurement": "fold reduction relative to control", "setting": "[1]; [4]", "result": 0, "unit": "fold"}, {"measurement": "Growth (CFU/ml)", "setting": "[1]; [4]", "result": "1.0 × 10^8 CFU/ml"}]}
